According to US11124553B2, “TDP-43 mitochondrial localization inhibitor for the treatment of neurogenerative disease” (Case Western Reserve University, priority 2016, dated 2021):
Where two headings read alike, the source gives them in different places. Ends that are not written are not given here.

Tests used:
[1] = continuous subcutaneous infusion
Experimental: Mice surgery/procedures were performed according to the NIH guidelines and were approved by the Institutional Animal Care and Use Committee (IACUC) at Case Western Reserve University. C57BL/6 non-transgenic wild type mice (NTG mice), Prnp-TARDBP mice (TDP-43 WT Tg mice) and Prnp-TARDBP*A315T mice (TDP-43 A315T Tg mice) were purchased from the Jackson Laboratory (Bar Harbor, Me.). Mice were infused subcutaneously with mini-osmotic pumps (Alzet Model 2004, Cupertino, Calif.; flow rate of 0.25 μl/hour). One day before implantation, mini-osmotic pumps were filled with 200 μl PBS containing cPM or PM1 peptides (0.5 mg/kg/Day) followed by pump incubation in PBS at 37 overnight according to the manufacturer's instructions. For surgery, male mice were anesthetized with avertin. A small incision was made at the back of mouse and mini-osmotic pump were implanted subcutaneously. After treatment, mice were deeply anesthetized with avertin and transcardially perfused with cold PBS and spinal cord and brain tissues were collected followed by fractionation, western blot or immunostaining.

[2] = 1.5 mg/kg/day s.c. infusion for 6 weeks; data not shown
cells = settings: data not shown

| Sequence | detection in mitochondrial compartments [1] | reaching the central nervous system [1] | reaching the central nervous system [2] | toxic effect on cells (cells) |
| --- | --- | --- | --- | --- |
| YGRKKRRQRRRAQFPGACGL [PM1] | detected in all mitochondrial compartments | reached the central nervous system | reached the central nervous system | – |
| YGRKKRRQRRRSKGFGFVRF [PM3] | – | – | – | mild toxic effect |
